Test results reported in patent publication US4098823A, “Monospiroalkyl derivatives of prostaglandins” (Miles Laboratories, Inc., priority 1977, dated 1978).
Values after ≈ are worked out from the molar mass of the structure shown.

Assays:
Gastric Secretion = experiment: Effects on Gastric Secretion in the Rat; assay type: in vivo; settings: pylorus-ligated rat, subcutaneous, 2 x 1.5 mg/kg (total 3.0 mg/kg), 4 hours
Description: A procedure based on that described by Lipmann (J. Pharm. Pharmacol., 21:335 [1968]) was used to assess the influence of test compounds on gastric secretion. Rats of one sex weighing 150 to 200 g were randomly divided into groups of six animals each and fasted for 48 hours previously to the experiments, water being available adlibitum. The animals were anesthetized with ether, the abdomen was opened through a midline incision and the pylorus was ligated. Test compounds were diluted from stock solution so as to administer a dose of 1.5 mg/kg in a volume equivalent to 1 ml/kg. Subcutaneous injections were applied immediately after surgery and again 2 hours later, so that a total dose of 3.0 mg/kg was administered. Dilutions were made with phosphate buffer (pH 7.38) as recommended by Lee et al. (Prostaglandins 3:29 [1973]), in order to insure adequate stability of drugs at the subcutaneous depot. Each compound was tested in one group of rats; an additional control group received only the vehicle.
Four hours after pyloric ligation the animals were killed with ether, the cardias ligated and the stomachs removed. The volume of gastric secretion was measured and the contents centrifuged at 500 rpm for 10 minutes. Total acid in the supernatant was titrated against a 0.1 N sodium hydroxide solution and the amount expressed in mEq.
Volume and total acid values of the treated group were compared with those of the controls by the "T" test. Antisecretory activity was scored according to the following scale: […]

rat stomach fundus = experiment: Cascade Assay, stomach (smooth muscle stimulant effect); assay type: cell-based; settings: superfused, 50% of maximum (PGE1)
Description: (§1) The smooth muscle stimulant effects of test compounds were determined simultaneously in four different tissues that are known to be reactive to naturally occurring prostaglandins. Segments of rat stomach fundus, rat colon, chick rectum and rabbit aortic strip were obtained as described by: Vane, J. R., Brit. J. Pharmacol., 12: 344 (1957); Regoli, D. and Vane, J. R., Brit. J. Pharmacol., 23: 351 (1964); Mann, M. and West, G. B., Brit. J. Pharmacol., 5: 173 (1950); and Furchgott, R. F. and Bhadrakom, R., J. Pharmacol. Exper. Ther., 108: 129 (1953). One end of each preparation was tied to the bottom of a 10 ml tissue chamber and the other to a force displacement transducer (Grass FT-03) for continuous tension recording. The stomach, colon, and rectum segments were stretched to an initial tension of 1 g, while the aortic strip was subjected to 4 g. All preparations were left undisturbed for 1 hour prior to testing. The chambers were equipped with an external jacket through which water, maintained at 40° C, was circulated. Preparations were arranged one beneath the other in descending order (aorta, stomach, colon and rectum). Provision was made for bathing the four tissues successively so that they were superfused with the same fluid (Gaddum, H. J., Brit. J. Pharmacol., 6: 321 [1953]. The bathing fluid consisted of: Krebs bicarbonate solution aerated with a mixture of 95% O2 and 5% CO2 and warmed at 37° C; atropine sulphate (0.1 mcg/ml), phenoxybenzamine hydrochloride (0.1 mcg/ml), propranolol hydrochloride (3.0 mcg/ml), methysergide maleate (0.2 mcg/ml) and brompheniramine maleate (0.1 mcg/ml) were added to eliminate the possibility of smooth muscle responses being due to stimulation of cholinergic, adrenergic, serotonin or histamine receptors. The fluid was circulated by means of a roller pump and was allowed to drip over the preparations at a rate of 10 ml/minute.
(§2) Test compounds were diluted from stock solutions so as to administer quantities ranging from 0.001 100,000 ng in a volume of 0.5 ml. The compounds were applied by dripping on the uppermost tissue, at intervals of 10 to 20 minutes. Maximal increases in tension after each dose were measured and the results were used to plot dose-response curves. ED50 data (doses necessary to produce a response 50% of maximum) were then calculated graphically for each tissue.
(§3) Activity in each tissue was scored according to the following scale: […]

rat colon = experiment: Cascade Assay, colon (smooth muscle stimulant effect); assay type: cell-based; settings: superfused, 50% of maximum (PGF2α)
Description: as §1, §2, §3

chick rectum = experiment: Cascade Assay, rectum (smooth muscle stimulant effect); assay type: cell-based; settings: superfused, 50% of maximum (PGE1)
Description: as §1, §2, §3

rabbit aortic strip = experiment: Cascade Assay, aorta (smooth muscle stimulant effect); assay type: cell-based; settings: superfused, 50% of maximum (PGA2)
Description: as §1, §2, §3

Rat Uterus = experiment: Effects on the Rat Uterus in Vitro; assay type: cell-based; settings: for EC50: Rattus norvegicus, read-out: Test F Rat Uterus, Activity Value (ED50)
Description: The uterine stimulant effect of test compounds was determined in segments of uterus obtained from rats (140-160 g) pretreated subcutaneously with 1 mg/kg of diethyl-stilbesterol 18 hours before the experiment. The tissues were placed in 10 ml chambers filled with de-Jalon solution at 29° C, were aerated and bubbled with 95% O2 and 5% CO2, and were prepared for isometric recording with force displacement transducers. Preparations were stretched to an initial tension of 1 g and were left undisturbed for 30 minutes. Carbachol (1 mcg/ml) was then added to the bath and a response was recorded. After a 10 minute interval the carbachol procedure was repeated. Responses to increasing concentrations of a test compound (0.001 to 10 mcg/ml with one log intervals) were then recorded every 10 minutes. Preparations were washed four times after each response. All doses of compounds were administered in a 0.1 ml volume. Because it has been observed that the magnitude of the second response to carbachol (approximately 10% greater than the first) is close to the maximal response of the tissue, such value was taken as a measure of the sensitivity of a particular segment. Responses to each concentration of the test compound were expressed in terms of percentage of the second response to carbachol and the ED50 (dose producing a response 50% that of carbachol) was calculated graphically. Activity was scored according to the following scale: […]

[1] = tested on: Blood Pressure and Heart Rate; experiment: Effects on Blood Pressure and Heart Rate in the Anesthetized Cat; assay type: in vivo; settings: intravenous, 0.01 to 10.0 mcg/kg, scored only on hypotension;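 note: Anesthetized cats given intravenous doses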
Description: The acute effects of test compounds on blood pressure and heart rate were determined in cats of either sex anesthetized with a mixture of pentobarbital sodium (35 mg/kg, i.v.) and barbital sodium (100 mg/kg, i.v.). Cannulas were placed in the trachea to allow adequate spontaneous ventilation, in a femoral artery for blood pressure recording with a strain gage transducer, and in a saphenous vein for drug administration. Heart rate was recorded by means of a cardiotachometer driven by the R wave of the electrocardiogram. After a period of 10 minutes of stable recordings of blood pressure and heart rate, the test compound was administered intravenously at doses increasing from 0.01 to 10.0 mcg/kg, spaced one log and injected at 10 minutes intervals. All doses were injected in a volume of 0.1 ml/kg. Modifications of blood pressure and heart rate induced by the test compound were expressed both in absolute units (mmHg and beats/minutes) and as percent of values recorded immediately before administration of each dose. Biphasic responses were tabulated in the order in which they occur. The direction of the observed changes was also noted (+ for increases and - for decreases).
Activity of compounds in this test was judged only on the basis of the degree of hypotension observed. Thus, the ED50 mmHg (dose decreasing blood pressure by 50 mmHg) was calculated graphically and the compound scored according to the following scale: […]

[2] = in vitro, 29° C, response 50% that of carbachol

Row | Structure (SMILES) | Test B Activity Value (% decrease in acidity, inhibition of gastric secretion) (Gastric Secretion) | Test E Cascade Assay, Stomach, Activity Value (ED50) (rat stomach fundus) | Test E Cascade Assay, Colon, Activity Value (ED50) (rat colon) | Test E Cascade Assay, Rectum, Activity Value (ED50) (chick rectum) | Test E Cascade Assay, Aorta, Activity Value (ED50) (rabbit aortic strip) | EC50 (Rat Uterus; [2]) [µg/mL] | Test D Activity Value (ED50 mmHg, decrease in blood pressure) [1] | Test F Rat Uterus, Activity Value (ED50) (Rat Uterus; [2]) | magnitude of second response to carbachol relative to the first (Rat Uterus; carbachol 1 mcg/ml, second response greater than the first)
1 | COC(=O)CCC/C=C\C[C@H]1C(=O)CCC[C@@H]1/C=C/[C@@H](O)C1CC2(CCC2)C1 (relative stereo) [TR-4758, dl Methyl-7-{6-ozo-2R-∂3S-hydroxy-3-(spiro[3.3]hept-2-yl)-1E-propenyl]cyclohex-1R-yl}hept-5Z-enoate] | 0 (<26) | 0 (>10000) | 0 (>10000) | 0 (>10000) | 0 (>10000) | > 10 |  |  | 
2 | COC(=O)CCC/C=C\C[C@H]1C(=O)CCC[C@@H]1/C=C/[C@H](O)C1CC2(CCC2)C1 (relative stereo) [TR-4759, dl Methyl-7-{6-oxo-2R-[3R-hydroxy-3-(spiro[3.3]hept-2-yl)-1E-propenyl]cyclohex-1R-yl}hept-5Z-enoate] | 0 (<26) | 0 (>10000) | 0 (>10000) | 0 (>10000) | 0 (>10000) | > 10 |  |  | 
3 | COC(=O)CCCCCC[C@H]1C(=O)C=C[C@H]1/C=C/[C@H](O)C1CC2(CCC2)C1 [TR-4127, Methyl 7-{5-oxo-2R-[3R-hydroxy-3-(spiro[3.3]hept-2-yl)-1E-propenyl]cyclopent-3-en-1R-yl}hepanoate] |  | 0 (>10000) | 0 (>10000) | 0 (>10000) | 0 (>10000) |  | 0 (>10.0) | 0 (>10) | 
4 | O=C1C[C@@H](O)[C@H](/C=C/[C@H](O)C2CC3(CCC3)C2)[C@H]1CCCCCCCO [TR-4713, 7-{3R-hydroxy-5-oxo-2R-[3R-hydroxy-3-(spiro[3.3]hept-2-yl)-1E-propenyl]cyclopent-1R-yl}heptan-1-ol] | 4 (76-100) | 0 (>10000) | 0 (>10000) | 1 (1001 - 10000) | 0 (>10000) | > 10 |  |  | 
5 | CCOC(=O)CCC/C=C\C[C@H]1C(=O)C[C@@H](O)[C@@H]1/C=C/[C@H](O)C1CC2(CCC2)C1 [TR-4726, Ethyl 7-{3R-hydroxy-5-oxo-2R-[3R-hydroxy-3-(spiro[3.3]hept-2-yl)-1E-propenyl]cyclopent-1R-yl}hept-5Z-enoate] | 0 (<26) | 0 (>10000) | 0 (>10000) | 0 (>10000) | 0 (>10000) | > 10 |  |  | 
6 | CCOC(=O)CCC/C=C\C[C@H]1C(=O)C[C@@H](O)[C@@H]1/C=C/[C@@H](O)C1CC2(CCC2)C1 [TR-4727, Ethyl 7-{3R-hydroxy-5-oxo-2R-[3S-hydroxy-3-(spiro[3.3]hept-2-yl)-1E-propenyl]cyclopent-1R-yl}hept-5Z-enoate] | 0 (<26) | 0 (>10000) | 0 (>10000) | 0 (>10000) | 0 (>10000) | > 10 |  |  | 
7 | CC1([C@@H](O)/C=C/[C@H]2[C@H](O)CC(=O)[C@@H]2CCCCCCCO)CC2(CCC2)C1 [TR-4841, 7-{3R-hydroxy-5-oxo-2R-[3S-hydroxy-3-(2-methylspiro[3.3]hept-2-yl)-1E-propenyl]cyclopent-1R-yl}heptan-1-ol] | 0 (<26) | 0 (>10000) | 0 (>10000) | 0 (>10000) | 0 (>10000) | > 10 |  |  | 
8 | COC(=O)CCCCCC[C@H]1C(=O)C[C@@H](O)[C@@H]1/C=C/[C@H](O)C1(C)CC2(CCC2)C1 [TR-4842, Methyl 7-{3R-hydroxy-5-oxo-2R-[3S-hydroxy-3-(2-methylspiro[3.3]hept-2-yl)-1E-propenyl]cyclopent-1R-yl}heptanoate] | 0 (<26) | 0 (>10000) | 0 (>10000) | 0 (>10000) | 0 (>10000) | > 10 |  |  | 
9 | CC1([C@H](O)/C=C/[C@H]2[C@H](O)CC(=O)[C@@H]2CCCCCCCO)CC2(CCC2)C1 [TR-4852, 7-{3R-hydroxy-5-oxo-2R-[3R-hydroxy-3-(2-methylspiro[3.3]hept-2-yl)-1E-propenyl]cyclopent-1R-yl}heptan-1-ol] | 2 (26-50, significant) | 0 (>10000) | 0 (>10000) | 0 (>10000) | 0 (>10000) | 0.101 to 1 (≈ 0.267 to 2.64 µM) |  |  | 
10 | C[N+](C)(C)CCOC(N)=O [carbachol, reference compound] |  |  |  |  |  |  |  |  | approximately 10%
